Results from patent US5672715A, “Herbicidal substituted 3-aryl-pyrazoles” (Monsanto Company, priority 1995, dated 1997).

What was measured:
Format in all cases: in vivo
Morning Glory [1] = experiment: post-emergence herbicide test; details: Ipomoea, post-emergence, 0.25 lb/A; read-out: % plant inhibition
Method in brief: (§1)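 Plants were raised from seed in topsoil pans in the greenhouse and treated post-emergence at two to three weeks of age. Candidate chemical was applied in spray solution or suspension containing about 0.4% emulsifier at 1870 L/Ha. Activity recorded as percent inhibition.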

Common Chickweed [2] = experiment: post-emergence herbicide test; details: post-emergence, 0.25 lb/A; read-out: % plant inhibition
Method in brief: as §1

Corn [3] = experiment: post-emergence herbicide test; details: Zea mays, post-emergence, 0.25 lb/A; read-out: % plant inhibition
Method in brief: as §1

Seedling Johnsongrass [4] = experiment: post-emergence herbicide test; details: Sorghum halepense, post-emergence, 0.25 lb/A; read-out: % plant inhibition
Method in brief: as §1

Blackgrass [5] = experiment: post-emergence herbicide test; details: Alopecurus myosuroides, post-emergence, 0.25 lb/A; read-out: % plant inhibition
Method in brief: as §1

Rape [6] = experiment: post-emergence herbicide test; details: post-emergence, 0.25 lb/A; read-out: % plant inhibition
Method in brief: as §1

Soybean [7] = experiment: post-emergence herbicide test; details: Glycine max, post-emergence, 0.25 lb/A; read-out: % plant inhibition
Method in brief: as §1

Green Foxtail [8] = experiment: post-emergence herbicide test; details: Setaria viridis, post-emergence, 0.25 lb/A; read-out: % plant inhibition
Method in brief: as §1

Barnyardgrass [9] = experiment: post-emergence herbicide test; details: Echinochloa crus-galli, post-emergence, 0.25 lb/A; read-out: % plant inhibition
Method in brief: as §1

Bedstraw Catchweed [10] = experiment: post-emergence herbicide test; details: Galium aparine, post-emergence, 0.25 lb/A; read-out: % plant inhibition
Method in brief: as §1

Giant Foxtail [11] = experiment: post-emergence herbicide test; details: Setaria faberi, post-emergence, 0.25 lb/A; read-out: % plant inhibition
Method in brief: as §1

Birdseye Speedwell [12] = experiment: post-emergence herbicide test; details: post-emergence, 0.25 lb/A; read-out: % plant inhibition
Method in brief: as §1

Wild Oats [13] = experiment: post-emergence herbicide test; details: Avena fatua, post-emergence, 0.25 lb/A; read-out: % plant inhibition
Method in brief: as §1

Wheat [14] = experiment: post-emergence herbicide test; details: Triticum aestivum, post-emergence, 0.25 lb/A; read-out: % plant inhibition
Method in brief: as §1

Downy Brome [15] = experiment: post-emergence herbicide test; details: Bromus tectorum, post-emergence, 0.25 lb/A; read-out: % plant inhibition
Method in brief: as §1

Cocklebur [16] = experiment: post-emergence herbicide test; details: Xanthium strumarium, post-emergence, 0.25 lb/A; read-out: % plant inhibition
Method in brief: as §1

Velvetleaf [17] = experiment: post-emergence herbicide test; details: Abutilon theophrasti, post-emergence, 0.25 lb/A; read-out: % plant inhibition
Method in brief: as §1

Morning Glory [18] = experiment: pre-emergence herbicide test; details: Ipomoea, pre-emergence, 0.25 lb/A; read-out: % plant inhibition
Method in brief: (§2)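 Pans of compacted topsoil received seeds and then a cover layer treated with test compound from an acetone or water carrier. Plants grew under greenhouse conditions with moisture supplied from below. Observations of % inhibition followed roughly 14 days after treatment.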

Common Chickweed [19] = experiment: pre-emergence herbicide test; details: pre-emergence, 0.25 lb/A; read-out: % plant inhibition
Method in brief: as §2

Corn [20] = experiment: pre-emergence herbicide test; details: Zea mays, pre-emergence, 0.25 lb/A; read-out: % plant inhibition
Method in brief: as §2

Seedling Johnsongrass [21] = experiment: pre-emergence herbicide test; details: Sorghum halepense, pre-emergence, 0.25 lb/A; read-out: % plant inhibition
Method in brief: as §2

Blackgrass [22] = experiment: pre-emergence herbicide test; details: Alopecurus myosuroides, pre-emergence, 0.25 lb/A; read-out: % plant inhibition
Method in brief: as §2

Rape [23] = experiment: pre-emergence herbicide test; details: pre-emergence, 0.25 lb/A; read-out: % plant inhibition
Method in brief: as §2

Soybean [24] = experiment: pre-emergence herbicide test; details: Glycine max, pre-emergence, 0.25 lb/A; read-out: % plant inhibition
Method in brief: as §2

Green Foxtail [25] = experiment: pre-emergence herbicide test; details: Setaria viridis, pre-emergence; 0.25 lb/A; read-out: % plant inhibition
Method in brief: as §2

Barnyardgrass [26] = experiment: pre-emergence herbicide test; details: Echinochloa crus-galli, pre-emergence, 0.25 lb/A; read-out: % plant inhibition
Method in brief: as §2

Bedstraw Catchweed [27] = experiment: pre-emergence herbicide test; details: Galium aparine, pre-emergence, 0.25 lb/A; read-out: % plant inhibition
Method in brief: as §2

Giant Foxtail [28] = experiment: pre-emergence herbicide test; details: Setaria faberi, pre-emergence, 0.25 lb/A; read-out: % plant inhibition
Method in brief: as §2

Birdseye Speedwell [29] = experiment: pre-emergence herbicide test; details: pre-emergence, 0.25 lb/A; read-out: % plant inhibition
Method in brief: as §2

Wild Oats [30] = experiment: pre-emergence herbicide test; details: Avena fatua, pre-emergence, 0.25 lb/A; read-out: % plant inhibition
Method in brief: as §2

Wheat [31] = experiment: pre-emergence herbicide test; details: Triticum aestivum, pre-emergence, 0.25 lb/A; read-out: % plant inhibition
Method in brief: as §2

Downy Brome [32] = experiment: pre-emergence herbicide test; details: Bromus tectorum, pre-emergence, 0.25 lb/A; read-out: % plant inhibition
Method in brief: as §2

Cocklebur [33] = experiment: pre-emergence herbicide test; details: Xanthium strumarium, pre-emergence, 0.25 lb/A; read-out: % plant inhibition
Method in brief: as §2

Velvetleaf [34] = experiment: pre-emergence herbicide test; details: Abutilon theophrasti, pre-emergence, 0.25 lb/A; read-out: % plant inhibition
Method in brief: as §2

## CC(C)OC(=O)c1cc(-c2nn(C)c(C(F)(F)F)c2CO)c(F)cc1Cl [Compound 14, 2-Chloro-4-fluoro-5-[4-(hydroxymethyl)-1-methyl-5-(trifluoromethyl)-1H-pyrazol-3-yl]benzoic acid, 1-methylethyl ester]
Morning Glory [1]
  inhibition at 280.212 g/ha: 85%
Common Chickweed [2]
  inhibition at 280.212 g/ha: 45%
Corn [3]
  inhibition at 280.212 g/ha: 10%
Seedling Johnsongrass [4]
  inhibition at 280.212 g/ha: 80%
Blackgrass [5]
  inhibition at 280.212 g/ha: 60%
Rape [6]
  inhibition at 280.212 g/ha: 75%
Soybean [7]
  inhibition at 280.212 g/ha: 25%
Green Foxtail [8]
  inhibition at 280.212 g/ha: 65%
Barnyardgrass [9]
  inhibition at 280.212 g/ha: 65%
Bedstraw Catchweed [10]
  inhibition at 280.212 g/ha: 40%
Giant Foxtail [11]
  inhibition at 280.212 g/ha: 25%
Birdseye Speedwell [12]
  inhibition at 280.212 g/ha: 90%
Wild Oats [13]
  inhibition at 280.212 g/ha: 50%
Wheat [14]
  inhibition at 280.212 g/ha: 13%
Downy Brome [15]
  inhibition at 280.212 g/ha: 60%
Cocklebur [16]
  inhibition at 280.212 g/ha: 95%
Velvetleaf [17]
  inhibition at 280.212 g/ha: 99%
Morning Glory [18]
  inhibition at 280.212 g/ha: 40%
Common Chickweed [19]
  inhibition at 280.212 g/ha: 98%
Corn [20]
  inhibition at 280.212 g/ha: 15%
Seedling Johnsongrass [21]
  inhibition at 280.212 g/ha: 97%
Blackgrass [22]
  inhibition at 280.212 g/ha: 65%
Rape [23]
  inhibition at 280.212 g/ha: 5%
Soybean [24]
  inhibition at 280.212 g/ha: 8%
Green Foxtail [25]
  inhibition at 280.212 g/ha: 100%
Barnyardgrass [26]
  inhibition at 280.212 g/ha: 90%
Bedstraw Catchweed [27]
  inhibition at 280.212 g/ha: 20%
Giant Foxtail [28]
  inhibition at 280.212 g/ha: 98%
Birdseye Speedwell [29]
  inhibition at 280.212 g/ha: 98%
Wild Oats [30]
  inhibition at 280.212 g/ha: 50%
Wheat [31]
  inhibition at 280.212 g/ha: 2%
Downy Brome [32]
  inhibition at 280.212 g/ha: 30%
Cocklebur [33]
  inhibition at 280.212 g/ha: 15%
Velvetleaf [34]
  inhibition at 280.212 g/ha: 60%

## COC(=O)CSCc1cc(-c2nn(C)c(C(F)(F)F)c2C)c(F)cc1Cl [Compound 31]
Morning Glory [1]
  inhibition at 280.212 g/ha: 80%
Common Chickweed [2]
  inhibition at 280.212 g/ha: 95%
Corn [3]
  inhibition at 280.212 g/ha: 50%
Seedling Johnsongrass [4]
  inhibition at 280.212 g/ha: 90%
Blackgrass [5]
  inhibition at 280.212 g/ha: 20%
Rape [6]
  inhibition at 280.212 g/ha: 75%
Soybean [7]
  inhibition at 280.212 g/ha: 35%
Green Foxtail [8]
  inhibition at 280.212 g/ha: 75%
Barnyardgrass [9]
  inhibition at 280.212 g/ha: 70%
Bedstraw Catchweed [10]
  inhibition at 280.212 g/ha: 70%
Giant Foxtail [11]
  inhibition at 280.212 g/ha: 50%
Birdseye Speedwell [12]
  inhibition at 280.212 g/ha: 100%
Wild Oats [13]
  inhibition at 280.212 g/ha: 35%
Wheat [14]
  inhibition at 280.212 g/ha: 20%
Downy Brome [15]
  inhibition at 280.212 g/ha: 55%
Cocklebur [16]
  inhibition at 280.212 g/ha: 99%
Velvetleaf [17]
  inhibition at 280.212 g/ha: 99%
Morning Glory [18]
  inhibition at 280.212 g/ha: 45%
Common Chickweed [19]
  inhibition at 280.212 g/ha: 25%
Corn [20]
  inhibition at 280.212 g/ha: 10%
Seedling Johnsongrass [21]
  inhibition at 280.212 g/ha: 40%
Blackgrass [22]
  inhibition at 280.212 g/ha: 5%
Rape [23]
  inhibition at 280.212 g/ha: 5%
Soybean [24]
  inhibition at 280.212 g/ha: 3%
Green Foxtail [25]
  inhibition at 280.212 g/ha: 20%
Barnyardgrass [26]
  inhibition at 280.212 g/ha: 5%
Bedstraw Catchweed [27]
  inhibition at 280.212 g/ha: 30%
Giant Foxtail [28]
  inhibition at 280.212 g/ha: 10%
Birdseye Speedwell [29]
  inhibition at 280.212 g/ha: 25%
Wild Oats [30]
  inhibition at 280.212 g/ha: 5%
Wheat [31]
  inhibition at 280.212 g/ha: 0%
Downy Brome [32]
  inhibition at 280.212 g/ha: 5%
Cocklebur [33]
  inhibition at 280.212 g/ha: 15%
Velvetleaf [34]
  inhibition at 280.212 g/ha: 80%

## Cc1c(-c2cc(C(=O)OCc3ccccc3)c(Cl)cc2F)nn(C)c1C(F)(F)F [Compound 41]
Morning Glory [1]
  inhibition at 280.212 g/ha: 75%
Common Chickweed [2]
  inhibition at 280.212 g/ha: 98%
Corn [3]
  inhibition at 280.212 g/ha: 35%
Seedling Johnsongrass [4]
  inhibition at 280.212 g/ha: 70%
Blackgrass [5]
  inhibition at 280.212 g/ha: 20%
Rape [6]
  inhibition at 280.212 g/ha: 40%
Soybean [7]
  inhibition at 280.212 g/ha: 15%
Green Foxtail [8]
  inhibition at 280.212 g/ha: 90%
Barnyardgrass [9]
  inhibition at 280.212 g/ha: 65%
Bedstraw Catchweed [10]
  inhibition at 280.212 g/ha: 100%
Giant Foxtail [11]
  inhibition at 280.212 g/ha: 5%
Birdseye Speedwell [12]
  inhibition at 280.212 g/ha: 100%
Wild Oats [13]
  inhibition at 280.212 g/ha: 20%
Wheat [14]
  inhibition at 280.212 g/ha: 15%
Downy Brome [15]
  inhibition at 280.212 g/ha: 30%
Cocklebur [16]
  inhibition at 280.212 g/ha: 95%
Velvetleaf [17]
  inhibition at 280.212 g/ha: 99%
Morning Glory [18]
  inhibition at 280.212 g/ha: 0%
Common Chickweed [19]
  inhibition at 280.212 g/ha: 55%
Corn [20]
  inhibition at 280.212 g/ha: 0%
Seedling Johnsongrass [21]
  inhibition at 280.212 g/ha: 50%
Blackgrass [22]
  inhibition at 280.212 g/ha: 15%
Rape [23]
  inhibition at 280.212 g/ha: 5%
Soybean [24]
  inhibition at 280.212 g/ha: 0%
Green Foxtail [25]
  inhibition at 280.212 g/ha: 100%
Barnyardgrass [26]
  inhibition at 280.212 g/ha: 50%
Bedstraw Catchweed [27]
  inhibition at 280.212 g/ha: 60%
Giant Foxtail [28]
  inhibition at 280.212 g/ha: 40%
Birdseye Speedwell [29]
  inhibition at 280.212 g/ha: 100%
Wild Oats [30]
  inhibition at 280.212 g/ha: 10%
Wheat [31]
  inhibition at 280.212 g/ha: 3%
Downy Brome [32]
  inhibition at 280.212 g/ha: 30%
Cocklebur [33]
  inhibition at 280.212 g/ha: 25%
Velvetleaf [34]
  inhibition at 280.212 g/ha: 90%
